According to US20250082766A1, “TREATMENT OF BRAIN TUMORS BY TARGETING THE CHOLESTEROL PATHWAY IN ASTROCYES” (Ramot at Tel-Aviv University Ltd., priority 2022, published 2025):

Columns and labels:
[1] = system: reactive astrocytes / GL261 glioma; experiment: Reactive astrocyte depletion with GCV in GL261-bearing WT or Gfap-TK mice; type: in vivo, mouse
Description: FIGS. 1A-I illustrate that depletion of Tumor-associated astrocytes (TAAs) regress glioblastoma progression. (FIG. 1A) Representative immunofluorescence images of reactive TAAs stained for GFAP (cyan) crowning a glioblastoma (GBM) tumor (GFP^+-GL261, white), and nuclei (DAPI, yellow). The right image is an expansion of the area marked by the white box. (n=3 biologically independent experiments, 3 mice per group). Scale bar, 1000 m; (FIGS. 1B-I) WT (wild type), or Gfap-TK GBM-bearing mice were treated daily with Ganciclovir (GCV, 25 mg/kg) from day 10 until the experimental endpoint as illustrated in FIG. 1B. (FIG. 1C) representative immunofluorescence images of reactive astrocyte depletion at the tumor margins (GFP^+-GL261, white), as detected by GFAP staining (cyan). Scale bars, 500 m. Data are representative of three independent experiments with n=4 mice/group. (FIGS. 1D-G) Tumor size in GCV-treated WT or Gfap-TK GBM-bearing littermates. (FIGS. 1D-E) Representative images of GL261-derived bioluminescence from each group are shown in FIG. 1D and quantification of tumor size in FIG. 1E. Data are representative of five independent experiments with n=6 mice/group. (FIGS. 1F-G) Representative images from each group, 17 days after GL261 cell implantation, are shown in FIG. 1F with quantification of tumor size in FIG. 1G, tumor (GL261 cells in purple), and nuclei (DAPI; white). Scale bar, 1000 m. Data are representative of three independent experiments with n=5 mice/group. (FIG. 1H) Bodyweight assessment of mice from FIGS. 1D-E. (FIG. 1I) Kaplan-Meier curves assessing overall survival. Data are representative of three independent experiments with n=8 mice/group. Data in FIGS. 1D-H are shown as mean±s.e.m. P values were determined by two-way ANOVA (FIGS. 1D-H) or Log rank (Mantel-Cox) test (FIG. 1I). *P<0.05, **P<0.01, ***P<0.001, n.s. not significant.
For intracranial mouse glioma, mice were anesthetized, positioned in a Stereotaxic Alignment System, and injected with 1.5×10^4 GL261 or CT-2A cells in 2 μl of DMEM. Injections were made to the right frontal lobe, approximately 2.5 mm lateral and 0.1 mm caudal from bregma at a depth of 3 mm. In-vivo bioluminescence imaging, following XenoLight D-luciferin Potassium Salt administration (150 mg/kg) i.p. administration, was determined using IVIS Spectrum system (PerkinElmer). Ganciclovir (GCV, Cymevene, Roche #SAP-10051872; 25 mg/kg), Diphtheria-toxin (DT, Sigma-Aldrich, #D0564; 1100 ng/mice), or vehicle control (PBS) were administered daily following tumor establishment (day 10), as previously described (Mayo, L., et al. Nat Med (2014) 20: 1147-1156). CD8^+ T cell depletion was performed using an anti-CD8 monoclonal antibody ([…], Bioxcell) or an isotype control monoclonal antibody (2A3, Bioxcell), as previously described (Takenaka, M. C. et al. Control of tumor-associated macrophages and T cells in glioblastoma via AHR and CD39. Nat Neurosci 22, 729-740 (2019)). GBM-bearing mice were intraperitoneally injected (0.1 mg/mouse) with an anti-CD8 or an isotype control mAbs, 1 day before, and 7 days after, GCV administration. CD8 T-cell depletion was validated by FACS analysis using a Sony SH800 FACS instrument (Sony Biotechnology). Data analysis was performed using FlowJo v10 (TreeStar, USA). The following reagents were used for analysis: anti-CD45 (1:100; 30-F11, Biolegend, #103106), anti-CD3[…] (1:50; 145-2C11, Biolegend #100335), and anti-CD8a (1:100; 53-6.7, Biolegend, #100765).
To study the role of TAAs in glioblastoma, the course of tumor progression was analyzed in mice expressing the herpes simplex virus thymidine kinase (HSVtk) under the Gfap promotor (Gfap-TK), in which Ganciclovir (GCV) administration can deplete reactive astrocytes. For this purpose, GFP^+GL261-Luc (GL261) was intracranially injected […], into syngeneic C57Bl/6 WT or into Gfap-TK littermates. […]

[2] = system: glioma; details: OXPHOS-targeting drugs; cited from earlier work
[3] = system: GL261 and CT-2A glioma cells; experiment: Cell viability assay (Annexin V/DAPI FACS) of glioma cells; type: cell-based, mouse; details: GL261 or CT-2A in LPDS-media; cholesterol 250 ng/ml for 5 days; FIGS. 5F-G
Procedure: FIGS. 5A-N illustrate that astrocyte-derived cholesterol supports glioma survival. (FIGS. 5A-D) Real-time changes in the ECAR (FIGS. 5A-B) and oxygen consumption rate (OCR) (FIGS. 5C-D) of GL261 glioma cells, cultured in media supplemented with full serum (FCS, fetal calf serum) or lipoprotein-deprived serum (LPDS, Lipoprotein-deficient serum) for 18 hours and measured using Seahorse. Oligo, oligomycin; FCCP, carbonyl cyanide4-(trifluoromethoxy) phenylhydrazone; R/A, rotenone plus antimycin A; 2-DG, 2-deoxy-d-glucose. Glycolysis, glycolytic capacity and glycolytic reserve were extracted from the ECAR reading, and basal respiration, adenosine triphosphate (ATP) production, Maximal respiration, and spare respiratory capacity were determined based on OCR. Data are representative of two independent experiments (n=6 technical replicates per experiment). (FIG. 5E) Percentage of cell death of GL261 and CT-2A glioma cells, or primary astrocytes, cultured in FCS or LPDS for 5 days; as determined by Annexin-V assay (n=5 independent experiments). […] Representative flow cytometry plots of Annexin-V/DAPI staining from each group are shown in FIG. 5F and quantification analyses of cholesterol rescue are in FIG. 5G (n=5 biologically independent experiments). (FIGS. 5H-K) Representative images and quantification of LDLR expression (Immunoblot, FIGS. 5H-I) and cell death via FACS analysis of Annexin V/DAPI staining (FIGS. 5J-K) in response to endogenous LXR agonists (24-OHC) or Mock (DMSO) treatment in GL261 and CT-2A cells (n=3 biologically independent experiments). […] (FIGS. 5L-M) Representative flow cytometry plots of murine GL261 and CT-2A glioma cells co-cultured for 5 days with primary mouse astrocytes are shown in FIG. 5L and quantification analyses in FIG. 5M (n=4 biologically independent experiments). (FIG. 5N) quantification analyses of human U87EGFRvIII (U87) glioma cells co-cultured with human primary astrocytes for 5 days (n=3 biologically independent experiments). […]

In the case of Nc1nc(O)c2ncn(COC(CO)CO)c2n1 [GCV, Ganciclovir], the “reactive astrocytes around the tumors (GFAP staining)” value ([1]; GBM-bearing Gfap-TK mice (not in WT mice), GCV 25 mg/kg daily from day 10, FIG. 1C) is reported as “specific ablation of reactive astrocytes”, the weight loss ([1]; GCV-treated GL261-bearing Gfap-TK mice vs WT littermates, FIG. 1H) is reported as “significantly attenuates the weight loss” and the survival ([1]; GCV-treated GL261-bearing Gfap-TK mice vs WT littermates, FIG. 1I) is reported as “dramatically improves their survival”. The “accumulation of IBA-1+ TAMs in the TME” value ([1]; GCV-treated GL261-bearing Gfap-TK vs WT mice, day 17, FIGS. 3D-E) was “significantly reduces”, the “tumor size (bioluminescence, histology)” value ([1]; GL261-bearing Gfap-TK mice, GCV 25 mg/kg daily from day 10, FIGS. 1D-G) was “dramatic tumor regression” and the “GBM progression (tumor size, bioluminescence)” value ([1]; GL261-bearing WT mice, GCV 25 mg/kg daily vs vehicle, FIG. 7A) was “neither GCV treatment of WT mice nor genetic insertion of the HSVtk into Gfap-TK mice (without GCV treatment) affected GBM progression”. For the same molecule, the survival ([1]; GL261-bearing WT mice, GCV vs vehicle, FIG. 7E) was “had no effect on survival”.

In the case of CN(C)C(=N)N=C(N)N [metformin], the “glioma proliferation and cell death” value [2] is given as “inhibit glioma proliferation and induce cell death”.

With CC(C)CCC[C@@H](C)[C@H]1CC[C@H]2[C@@H]3CC=C4C[C@@H](O)CC[C@]4(C)[C@H]3CC[C@]12C [cholesterol] the “rescue of glioma viability from lipoprotein-bound cholesterol deprivation” value [3] was “overcame the deleterious effects of lipoprotein-bound cholesterol deprivation on glioma viability”.

In the case of Cc1nc(-c2nc(-c3ccc(OC(F)(F)F)cc3)no2)nn1Cc1cccc(N2CCC(S(C)(=O)=O)CC2)c1 [IACS-010759], the “glioma proliferation and cell death” value [2] is given as “inhibit glioma proliferation and induce cell death”.
